# Data published in EPA's ToxValDB 9.5 (doi:10.2903/j.efsa.2011.1962).
# What was measured:
# Typhlodromus pyri = experiment: LR50; higher = less toxic; settings: not reported; mortality
# Canidae = settings: subchronic; duration: 90 days; oral; Dog Other; histopathology: nonneoplastic
# Tagia sp. = settings: acute; duration: 14 days; mortality
# Daphnia magna = settings: chronic/long-term; duration: 21 days; reproduction
# Oryctolagus sp. = settings: developmental; development
# Lepomis macrochirus = settings: chronic/long-term; duration: 28 days; body weight
compound,measurement,setting,value
CC(C)C(O)(c1ccc(OC(F)(F)F)cc1)c1cncnc1 (stereo unspecified) [Flurprimidol],LR50,Typhlodromus pyri,> 29.6 g/ha
same,NOAEL,Canidae,1.5 mg/kg-day
same,LOAEL,"Rattus norvegicus; chronic, duration: 2 years, organ weight",1 mg/kg-day
same,NOAEL,"Rattus norvegicus; developmental, development",10 mg/kg-day
same,NOAEL,"Rattus norvegicus; reproduction developmental, reproduction",1.8 mg/kg-day
same,NOEL,"Rattus norvegicus; short-term, oral, diet, body weight",1.62 mg/kg-day
same,NOAEL,"Rattus norvegicus; subchronic, duration: 90 days, oral, organ weight",1.96 mg/kg-day
same,NOEC,Tagia sp.,62.6 mg/kg
same,NOEC,Daphnia magna,1.7 mg/L
same,NOAEL,Oryctolagus sp.,9 mg/kg-day
same,NOEC,Lepomis macrochirus,0.42 mg/L
